Our source for the IC50 values is patent US8445680B2, “Tetrahydrothieno pyridines” (Merck Sharp & Dohme Corp., priority 2008, dated 2013).

The target of this experiment is T1, FLAG-tagged full length PHD2 (Homo sapiens, UniProt Q9GZT9).
T1 construct: FLAG-tagged full length PHD2; FLAG; made in house; host or cells: baculovirus-infected Sf9 cells
T1 sequence (Q9GZT9 whole entry): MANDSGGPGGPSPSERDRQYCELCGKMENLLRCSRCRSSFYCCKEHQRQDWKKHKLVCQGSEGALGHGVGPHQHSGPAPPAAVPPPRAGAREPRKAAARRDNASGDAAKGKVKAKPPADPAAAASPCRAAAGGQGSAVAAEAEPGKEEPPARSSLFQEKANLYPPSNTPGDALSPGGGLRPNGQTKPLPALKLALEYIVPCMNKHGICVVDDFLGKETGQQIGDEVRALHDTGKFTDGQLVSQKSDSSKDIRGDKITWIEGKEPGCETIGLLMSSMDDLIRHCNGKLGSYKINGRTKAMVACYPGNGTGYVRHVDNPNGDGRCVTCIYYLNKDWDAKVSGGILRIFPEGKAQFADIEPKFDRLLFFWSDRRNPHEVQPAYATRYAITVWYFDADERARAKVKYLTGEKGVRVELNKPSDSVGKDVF
As to the kind of experiment: PHD2 inhibition assay (time resolved fluorescence, HIF-1α peptide hydroxylation, VHL detection). Type of experiment: biochemical. As to conditions: 0.2 μM 2-oxoglutarate, 0.5 μM HIF-1α peptide, 2 hr at room temperature; read-out: PHD2 Activity (PHD2 binding activity expressed as IC50). As for the experimental part:
To each well of a 96-well plate was added 1 μL of test compound in DMSO and 20 μl of assay buffer (50 mM Tris pH 7.4/0.01% Tween-20/0.1 mg/ml bovine serum albumin/10 μM ferrous sulfate/1 mM sodium ascorbate/20 μg/ml catalase) containing 0.15 μg/ml FLAG-tagged full length PHD2 expressed in and purified from baculovirus-infected Sf9 cells. After a 30 min preincubation at room temperature, the enzymatic reactions were initiated by the addition of 4 μL of substrates (final concentrations of 0.2 μM 2-oxoglutarate and 0.5 μM HIF-1α peptide biotinyl-[…]).
The term IC50 denotes the concentration that gives 50% inhibition. As to `O=C(O)CNC(=O)c1c(O)c2c(n(Cc3nc(-c4ccccc4)cs3)c1=O)CS(=O)(=O)C2` [Example 62, N-({4-hydroxy-6,6-dioxido-2-oxo-1-[(4-phenyl-1,3-thiazol-2-yl)methyl]-1,2,5,7-tetrahydrothieno[3,4-b]pyridin-3-yl}carbonyl)glycine], the IC50 fell in the range of 10 to 100 nM. Turning to `O=C(O)CNC(=O)c1c(O)c2c(n(Cc3ccc(C(F)(F)F)cc3)c1=O)CS(=O)(=O)C2` [Example 63, N-({4-hydroxy-6,6-dioxido-2-oxo-1-[4-(trifluoromethyl)benzyl]-1,2,5,7-tetrahydrothieno[3,4-6]pyridin-3-yl}carbonyl)glycine], the IC50 is at most 10 nM. To `O=C(O)CNC(=O)c1c(O)c2c(n(Cc3ccc(-c4ccccc4)cc3)c1=O)CS(=O)(=O)C2` [Example 64, N-{[1-(biphenyl-4-ylmethyl)-4-hydroxy-6,6-dioxido-2-oxo-1,2,5,7-tetrahydrothieno[3,4-b]pyridin-3-yl]carbonyl}glycine] belongs at most 10 nM. As to `O=C(O)CNC(=O)c1c(O)c2c(n(Cc3ccc(OC(F)(F)F)cc3)c1=O)CS(=O)(=O)C2` [Example 65, N-({4-hydroxy-6,6-dioxido-2-oxo-1-[4-(trifluoromethoxy)benzyl]-1,2,5,7-tetrahydrothieno[3,4-b]pyridin-3-yl}carbonyl)glycine], the IC50 is at most 10 nM.

On to `CCc1ccc(Cn2c3c(c(O)c(C(=O)NCC(=O)O)c2=O)CS(=O)(=O)C3)cc1` [Example 66, N-{[1-(4-ethylbenzyl)-4-hydroxy-6,6-dioxido-2-oxo-1,2,5,7-tetrahydrothieno[3,4-b]pyridin-3-yl]carbonyl}glycine], for which the IC50 was at most 10 nM.
